# pEC50: −log10 of the molar value.
# System: AML cell line MV4-11
# Assay: Anticancer activity: Alamar Blue 3-day proliferation assay
# Format: cell-based
# Details: Homo sapiens, MV4-11 cells, 72h, read-out: MV4-11 EC50_μM
# Description: The impact of the compounds on cancer cell proliferation was determined using the AML cell line MV4-11 (ATCC) in a 3-day proliferation assay. MV4-11 cells were maintained in RPMI supplemented with 10% FBS at 37° C., 5% CO2. For compound testing, MV4-11 cells were plated in a 96-well black bottom plate at a density of 15,000 cells/well in 100 μL culture media and incubated at 37° C. overnight. Compound dilution series were prepared in DMSO via a 3-fold serial dilution from 100 μM to 0.005 μM. The DMSO dilution series were then diluted with media, with the final compound concentrations added to the wells ranging from 10 μM to 0.0005 μM. […] The fluorescent readings from the Alamar Blue assay were normalized to the DMSO treated cells and analyzed using the GraphPad Prism software with siginoidal curve fitting to obtain EC50.
row,pEC50,Compound
1,> 9.30,"CCNC(=O)CC1OC(c2ccc(Cl)cc2)c2c(sc(C)c2C)-c2cn(C)c(=O)cc21 (racemic) [bb, 2-(4-(4-chlorophenyl)-2,3,9-trimethyl-8-oxo-4,6,8,9-tetrahydrothieno[2′,3′:5,6]oxepino[4,3-c]pyridin-6-yl)-N-ethylacetamide]"
2,> 9.30,"CCNC(=O)CC1OC(c2ccc(Cl)cc2)c2c(cnn2C)-c2cn(C)c(=O)cc21 (racemic) [ll, 2-(4-(4-chlorophenyl)-3,9-dimethyl-8-oxo-4,6,8,9-tetrahydro-3H-pyrazolo[4′,3′:5,6]oxepino[4,3-c]pyridin-6-yl)-N-ethylacetamide]"
3,6.85,"CCNC(=O)CC1N=C(c2ccc(Cl)cc2)c2nc(C)sc2-c2cn(C)c(=O)cc21 (racemic) [m, 2-(4-(4-chlorophenyl)-2,9-dimethyl-8-oxo-8,9-dihydro-6H-pyrido[4,3-c]thiazolo[5,4-e]azepin-6-yl)-N-ethylacetamide]"

# Further lines, the molecule ahead of its results:
row,Compound,pEC50
1,"CCOC(=O)CC1N=C(c2ccc(Cl)cc2)c2nc(C)sc2-c2cn(C)c(=O)cc21 (racemic) [l, Ethyl 2-(4-(4-chlorophenyl)-2,9-dimethyl-8-oxo-8,9-dihydro-6H-pyrido[4,3-c]thiazolo[5,4-e]azepin-6-yl)acetate]",6.37
2,"CCNC(=O)CC1N=C(CC2CC2)c2c(sc(C)c2C)-c2cn(C)c(=O)cc21 (racemic) [r, 2-(4-(cyclopropylmethyl)-2,3,9-trimethyl-8-oxo-8,9-dihydro-6H-pyrido[4,3-c]thieno[2,3-e]azepin-6-yl)-N-ethylacetamide]",6.80
3,"CCNC(=O)CC1N=C(c2ccc(Cl)cc2)c2cc(OC)ncc2-c2cn(C)c(=O)cc21 (racemic) [t, 2-(7-(4-chlorophenyl)-9-methoxy-2-methyl-3-oxo-3,5-dihydro-2H-dipyrido[4,3-c:3′,4′-e]azepin-5-yl)-N-ethylacetamide]",7.77
4,"CCOC(=O)CC1N=C(c2ccc(Cl)cc2)c2c(cnn2C)-c2cn(C)c(=O)cc21 (racemic) [w, Ethyl 2-(4-(4-chlorophenyl)-3,9-dimethyl-8-oxo-3,6,8,9-tetrahydropyrazolo[3,4-c]pyrido[3,4-e]azepin-6-yl)acetate]",7.59
